Assay results as given in patent publication US5283372A, “Preparation of purified optical isomers of desflurane” (Anaquest, Inc., priority 1993, dated 1994).
“Also recorded” adds a separate entry of the source.

Assays:
[1] = test system: Male Swiss-Webster mice (loss of righting); test: Loss of righting (LOR) in mice: potency, onset and recovery of inhaled anesthetic; format: in vivo, mouse (Swiss-Webster); conditions: mouse; for Recovery (mean time to ambulation) / Onset (mean time to LOR): at the EC50 concentration; for Onset (mean time to LOR): six animals; for EC50 (loss of righting): inhalation in 1900 ml container flushed with 100% oxygen, LOR within two minutes and supine for thirty seconds, * significant at P<0.05
Method: Male Swiss-Webster mice, about 22-25 g, were allowed free access to food and water and housed ten to a cage in a temperature (22.2°) and humidity (50%) controlled vivarium with a twelve hour light-dark cycle.
The test anesthetic was pipetted into a 1900 ml container previously flushed for one minute with 100% oxygen. The container was sealed, rotated to insure complete evaporation of test compound and allowed to stand for five minutes. The approximate concentration of the anesthetic was calculated. Six animals were tested at each concentration of racemate and its purified optical isomers. The animals were placed in the container in groups of three. The container was rotated periodically.
The percentage of mice to lose their righting ability within two minutes and remain supine for thirty seconds was noted. Loss of righting (LOR) at four concentrations, including EC0 and EC100, were used to determine the EC50. Subsequently, onset (defined as the mean time for six animals to LOR) and recovery (defined as the mean time to ambulation) were determined at the EC50 concentration. Potency (defined by the dose-response curve) of each compound was compared using a parallel line analysis. Onset and recovery means were compared using a Student's T-Test P<0.05. The results are reported in Table I. In the Table, "S.D." is standard deviation, "C.L." is confidence level and "EC50 " is the effective concentration in one half of the animals tested.

[2] = test system: Male Sprague-Dawley rats (loss of righting); test: Loss of righting (LOR) in rats: onset and recovery at EC100; format: in vivo, rat (Sprague-Dawley); conditions: rat; for Recovery (of righting): EC100 concentration, removed five minutes after LOR; for Onset of LOR: at EC100 concentration, five rats per anesthetic
Method: (§1) Male Sprague-Dawley rats were maintained as were the mice in Example 7. The animals were trained to maintain their balance for ninety seconds on a rotarod revolving at 10 rpm. The animals were allowed to rest five minutes and again trained to remain on the rotating rotarod for ninety seconds.
(§2) The rats were individually placed into containers which had been purged with 100% oxygen for one minute, and which contained a known concentration of racemic desflurane, or its positive isomer or negative isomer which had been previously determined to be equal to the EC100. Five rats were utilized for each anesthetic.
The onset of LOR was recorded for each animal. The animals remained in the container for five minutes following LOR, and were then removed. Recovery was determined, and the mean calculated.
Onset and recovery were compared across anesthetics using a Student's T Test.

[3] = test system: Male Sprague-Dawley rats (recovery of motor coordination); test: Rotarod testing in rats after recovery of righting (Rotarod Index); format: in vivo, rat (Sprague-Dawley); conditions: for Rotarod Index (ROI): ROI=(First+Second×2/3+Third×1/3)/3, average time on rod in seconds at 0, 90, 180 seconds after recovery of righting, maximum 60, rotarod 10 rpm
Method: as §1, §2
Following recovery of righting, the animals were placed on the rotarod 0, 90, and 180 seconds thereafter and the length of time they were able to remain on the rod was recorded in each instance. Animals that remained on the rod for a full ninety seconds were not subsequently tested. The durations of maintaining balance were noted and averaged, and the number of animals meeting the ninety second criterion were recorded at each time interval.
A Rotarod Index (ROI) was then calculated according to the following formula.
ROI=(First+Second×2/3+Third×1/3)/3 where First, Second and Third are the average time on the rod in seconds for the respective time intervals. Animals remaining on the rod for the full ninety seconds during either the interval beginning at zero time or ninety seconds were scored with ninety seconds for all subsequent intervals. Therefore, the maximum ROI attainable was […]. The ROI value measures the recovery of motor coordination following drug-induced LOR.

Compound: FC(F)OC(F)C(F)(F)F (racemic) [Racemic Desflurane, 2-(difluoromethoxy)-1,1,1,2-tetrafluoroethane, reference compound]
- Recovery (mean time to ambulation) [1]: 0.12 min
- Onset (mean time to LOR) [1]: 1.72 min
- EC50 (loss of righting) [1]: 4.75%
- Recovery (of righting) [2]: 1.38 min
- Onset of LOR [2]: 1.04 min
- Rotarod Index (ROI) ([3]; rat): 32.4

Compound: FC(F)OC(F)C(F)(F)F (single isomer, unassigned; (+)) [Positive Isomer, (+)-2-(difluoromethoxy-1,1,1,2-tetrafluoroethane]
- Recovery (mean time to ambulation) [1]: 0.31 min
- Onset (mean time to LOR) [1]: 1.44 min
- EC50 (loss of righting) [1]: 4.1%
- Potency (in words) ([1]; highly purified positive isomer, comparison with negative isomer or racemate, listed as positive isomer of desflurane): greater potency; also recorded: improved potency
- Recovery (of righting) [2]: 0.88 min
- Onset of LOR [2]: 0.92 min
- Rotarod test / time to become "street fit" (in words) ([3]; comparison with racemate and negative isomer): clearly superior in the rotarod test; also recorded: superior to the racemate and the negative isomer in terms of the time in which a patient would become "street fit"
- Rotarod Index (ROI) ([3]; rat): 38.6
- ROI value (in words) ([3]; rat, comparison of isomers): larger ROI value

Compound: FC(F)OC(F)C(F)(F)F (single isomer, unassigned; (-)) [Negative Isomer, (-)-2-(difluoromethoxy)-1,1,1,2-tetrafluoroethane]
- Recovery (mean time to ambulation) [1]: 0.25 min
- Onset (mean time to LOR) [1]: 1.05 min
- EC50 (loss of righting) [1]: 4.6%
- Recovery (of righting) [2]: 0.31 min
- Onset of LOR [2]: 1.05 min
- Recovery time (in words) ([2]; comparison of isomers): faster recovery time
- Rotarod Index (ROI) ([3]; rat): 28.8
